Test results reported in patent US20170369807A1, “Ionic Liquid, Lubricant, and Magnetic Recording Medium” (Dexerials Corporation, priority 2016, published 2017).

Tests used:
[1] = in acetonitrile; cited from earlier work
[2] = Measurement of thermal stability (TG/DTA); conditions: for Weight reduction temperature 5% / Weight reduction temperature 10% / Weight reduction temperature 20%: TG/DTA, 30° C. to 600° C., 10° C./min, air 200 mL/min; for thermal stability (in words): compared with Z-DOL and Z-TETRAOL
[3] = Solubility test to solvents (visual observation); conditions: ultrasonic waves 5 minutes, left 1 day, visually observed, listed as Example 3A, ammonium
Protocol: To a predetermined amount of Vertrel XF, n-hexane, or ethanol, the ionic liquid was added. Ultrasonic waves were applied to the resultant mixture for 5 minutes, followed by leaving the mixture to stand for 1 day. The solubility was visually observed.
After applying ultrasonic waves to the resultant for 5 minutes, the resultant was left to stand for 1 day. Thereafter, the solubility was visually observed and evaluated based on the following evaluation criteria.
Similarly, after applying ultrasonic waves to the resultant for 5 minutes, the resultant was left to stand for 1 day. Thereafter, the solubility was visually observed and evaluated based on the following evaluation criteria.
Note that, the solubility was visually observed, and it was judged as soluble when it was transparent. Moreover, it was judged as not soluble (insoluble) when it was opaque or insoluble components were observed.

Molecule	pKa [1]	Weight reduction temperature 5% [2] [°C]	Weight reduction temperature 10% [2] [°C]	Weight reduction temperature 20% [2] [°C]	further results
perfluorocyclopropane sulfoimide	−0.8				
F[B-](F)(F)F.[H+] [tetrafluoroboric acid]	1.8				
CCCCCCCCCCCCCCCCCCN(C)C.O=S(=O)(NS(=O)(=O)C(F)(F)C(F)(F)C(F)(F)C(F)(F)F)C(F)(F)C(F)(F)C(F)(F)C(F)(F)F [Ex. 1A, bis(nonafluorobutanesulfonyl)imide-N,N-dimethyl-octadecyl ammonium]		315.7	337.0	356.7	
CCCCCCCCCCCCN(CCCCCCCCCCCC)CCCCCCCCCCCC [Ex. 3A, trifluoromethanesulfonic acid-N,N,N-tridodecyl ammonium]					Solubility Fluorine-based solvent ([3]; Vertrel XF [CF3(CHF)2CF2CF3], 25° C.): ≥ 0.2 % by mass; Solubility Ethanol ([3]; ethanol): ≥ 0.5 % by mass; Solubility n-Hexane ([3]; n-hexane, 25° C.): ≥ 0.5 % by mass; thermal stability improved compared with Z-DOL ([2]; compared with Z-DOL (Comparative Example 7C)): ≥ 120 °C; thermal stability improved compared with Z-TETRAOL ([2]; compared with Z-TETRAOL (Comparative Example 8C)): ≥ 45 °C
O=S(=O)(O)C(F)(F)F [trifluoromethanesulfonic acid]	0.7				
O=S(=O)(O)C(F)(F)C(F)(F)C(F)(F)C(F)(F)F [nonafluorobutanesulfonic acid]	0.7				
O=S(=O)(NS(=O)(=O)C(F)(F)C(F)(F)C(F)(F)C(F)(F)F)C(F)(F)C(F)(F)C(F)(F)C(F)(F)F [bis(nonafluorobutanesulfonyl)imide]	0.0				
O=C(O)C(F)(F)C(F)(F)C(F)(F)C(F)(F)C(F)(F)C(F)(F)C(F)(F)F [pentadecafluorooctanoic acid]	12.7				
nonafluorobutanesulfonic acid-N-methyloctadecyl ammonium [Comp. Ex. 4A]		346.8	364.0	381.1	thermal stability (in words) [2]: high
CCCCCCCCCCCCCCCCCCN.O=S(=O)(NS(=O)(=O)C(F)(F)C(F)(F)C(F)(F)C(F)(F)F)C(F)(F)C(F)(F)C(F)(F)C(F)(F)F [Comp. Ex. 2A, bis(nonafluorobutanesulfonyl)imide-octadecyl ammonium]		311.8	329.8	348.0	
bis(nonafluorobutanesulfonyl)imide-N,N-dimethyl-dodecyl ammonium [Ex. 2A]		308.5	331.5	353.4	
O=S1(=O)NS(=O)(=O)C(F)(F)C(F)(F)C1(F)F [hexafluorocyclopropane-1,3-bis(sulfonyl)imide]	−0.8				
nonafluorobutanesulfonic acid-trimethyloctadecyl ammonium [Comp. Ex. 5A]		340.5	356.2	371.9	thermal stability (in words) [2]: high
CCCCCCCCCCCCCCCCCCN.O=S1(=O)NS(=O)(=O)C(F)(F)C(F)(F)C1(F)F [Comp. Ex. 3A, hexafluorocyclopropane-1,3-bis(sulfonyl)imide-octadecyl ammonium]		329.6	347.0	365.1	
O=[N+]([O-])O [nitric acid]	9.4				
nonafluorobutanesulfonic acid-octadecyl ammonium [Comp. Ex. 1A]		338.8	355.2	370.4	thermal stability (in words) [2]: high
pentadecafluorooctanoic acid octadecyl ammonium [Comp. Ex. 6A]		206.9	215.8	223.4	thermal stability (in words) [2]: lacked thermal stability
